Target: T1, bovine cardiac myofibrils (Bos taurus, UniProt Q9BE39)
T1 construct: full-length cardiac myosin in the context of the native sarcomere; from tissue; host or cells: bovine cardiac left ventricular tissue, homogenized with detergent (triton X-100)
Test: Skinned bovine cardiac myofibril ATPase assay (PK/LDH-coupled)
Type: biochemical
Settings: inhibition of steady-state ATPase activity of bovine cardiac myofibrils, calcium at 75% activation (pCa75), PM12 buffer pH 6.8; for IC50: read-out: CDMF75 IC50
Description: To evaluate the effect of compounds on the ATPase activity of full-length cardiac myosin in the context of the native sarcomere, skinned myofibril assays were performed. Bovine cardiac myofibrils were obtained by homogenizing bovine cardiac left ventricular tissue in the presence of a detergent such as triton X-100. Such treatment removes membranes and a majority of the soluble cytoplasmic proteins but leaves intact the cardiac sarcomeric acto-myosin apparatus. Myofibril preparations retain the ability to hydrolyze ATP in an Ca^2+ regulated manner ATPase activities of such myofibril preparations in the presence and absence of compounds were assayed at Ca^2+ concentrations activating to a defined fraction of the maximal rate (i.e., 25%, 75%). Small molecule agents were assessed for their ability to inhibit the steady-state ATPase activity of bovine cardiac myofibrils using pyruvate kinase and lactate dehydrogenase (PK/LDH)-coupled enzyme system. This assay regenerates myosin-produced ADP into ATP by oxidizing NADH, producing an absorbance change at 340 nm. Prior to testing small molecule agents, the bovine cardiac myofibrils were assessed for their calcium responsiveness and the calcium concentration that achieves either a 50% (pCa50) or 75% (pCa75) activation of the myofibril system was chosen as the final condition for assessing the inhibitory activity of the small molecule agents. All enzymatic activity was measured in a buffered solution containing 12 mM PIPES (piperazine-N,N′-bis(2-ethanesulfonic acid), 2 mM magnesium chloride at pH 6.8 (PM 12 buffer). Final assay conditions were 1 mg/mL of bovine cardiac myofibrils, 4 U/mL pyruvate kinase, 6 U/mL lactate dehydrogenase, 50 μM ATP, 0.1 mg/mL BSA (bovine serum albumin), 10 ppm antifoam, 1 mM DTT, 0.5 mM NADH, 1.5 mM PEP, 0.6 mM EGTA, and an amount of CaCl2) sufficient to achieve either 50% or 75% activation of the myofibril ATPase activity. Results for compounds tested are provided in Table A. Compounds tested were prepared in accordance with the synthetic procedures described herein.

T1 sequence (Q9BE39 whole entry): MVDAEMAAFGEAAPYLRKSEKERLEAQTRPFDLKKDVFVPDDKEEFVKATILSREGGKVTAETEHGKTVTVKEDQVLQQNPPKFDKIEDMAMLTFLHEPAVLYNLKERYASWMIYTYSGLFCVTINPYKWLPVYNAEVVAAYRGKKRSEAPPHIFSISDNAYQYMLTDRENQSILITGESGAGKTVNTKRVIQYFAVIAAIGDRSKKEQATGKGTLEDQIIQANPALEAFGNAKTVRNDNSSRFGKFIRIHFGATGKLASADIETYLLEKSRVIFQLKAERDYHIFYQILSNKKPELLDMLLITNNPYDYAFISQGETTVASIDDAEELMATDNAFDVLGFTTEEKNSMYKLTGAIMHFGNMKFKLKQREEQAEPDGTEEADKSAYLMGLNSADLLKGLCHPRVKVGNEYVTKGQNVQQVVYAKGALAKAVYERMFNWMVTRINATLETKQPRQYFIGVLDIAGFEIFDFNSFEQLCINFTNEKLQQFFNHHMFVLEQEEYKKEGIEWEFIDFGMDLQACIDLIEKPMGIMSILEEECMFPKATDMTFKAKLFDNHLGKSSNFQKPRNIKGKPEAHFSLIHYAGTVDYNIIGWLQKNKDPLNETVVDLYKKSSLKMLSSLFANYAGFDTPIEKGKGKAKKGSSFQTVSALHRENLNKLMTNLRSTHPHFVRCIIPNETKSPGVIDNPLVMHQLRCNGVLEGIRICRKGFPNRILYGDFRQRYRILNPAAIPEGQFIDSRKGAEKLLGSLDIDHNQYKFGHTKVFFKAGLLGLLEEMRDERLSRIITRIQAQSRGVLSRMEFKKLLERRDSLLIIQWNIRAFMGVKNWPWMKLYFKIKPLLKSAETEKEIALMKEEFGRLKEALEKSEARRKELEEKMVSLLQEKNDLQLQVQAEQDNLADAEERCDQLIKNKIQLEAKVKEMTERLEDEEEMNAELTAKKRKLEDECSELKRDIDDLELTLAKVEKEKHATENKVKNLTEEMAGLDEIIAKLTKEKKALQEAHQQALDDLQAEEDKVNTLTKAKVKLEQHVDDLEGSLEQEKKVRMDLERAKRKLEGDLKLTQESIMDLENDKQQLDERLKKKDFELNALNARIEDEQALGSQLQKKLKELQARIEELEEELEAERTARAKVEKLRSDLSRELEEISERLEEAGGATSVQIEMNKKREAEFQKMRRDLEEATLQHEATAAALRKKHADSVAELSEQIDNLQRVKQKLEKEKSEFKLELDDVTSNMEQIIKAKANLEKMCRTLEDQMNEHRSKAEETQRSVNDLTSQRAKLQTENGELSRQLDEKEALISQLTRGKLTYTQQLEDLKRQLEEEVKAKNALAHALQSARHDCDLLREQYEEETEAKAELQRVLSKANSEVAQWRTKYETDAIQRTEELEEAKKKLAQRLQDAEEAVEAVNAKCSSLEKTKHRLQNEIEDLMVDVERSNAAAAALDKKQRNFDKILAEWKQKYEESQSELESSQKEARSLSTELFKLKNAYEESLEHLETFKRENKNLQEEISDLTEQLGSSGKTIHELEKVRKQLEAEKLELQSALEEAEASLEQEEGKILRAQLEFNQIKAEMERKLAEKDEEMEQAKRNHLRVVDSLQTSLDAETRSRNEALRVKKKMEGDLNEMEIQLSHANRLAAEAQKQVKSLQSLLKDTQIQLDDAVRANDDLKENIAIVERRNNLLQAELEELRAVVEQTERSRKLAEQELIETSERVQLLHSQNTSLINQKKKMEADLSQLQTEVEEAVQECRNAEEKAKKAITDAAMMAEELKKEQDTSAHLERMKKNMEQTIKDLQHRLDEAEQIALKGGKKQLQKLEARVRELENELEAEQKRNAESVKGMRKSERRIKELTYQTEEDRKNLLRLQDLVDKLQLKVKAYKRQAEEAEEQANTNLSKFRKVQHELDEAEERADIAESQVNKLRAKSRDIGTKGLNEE
T1 sequence (P85100 whole entry partner): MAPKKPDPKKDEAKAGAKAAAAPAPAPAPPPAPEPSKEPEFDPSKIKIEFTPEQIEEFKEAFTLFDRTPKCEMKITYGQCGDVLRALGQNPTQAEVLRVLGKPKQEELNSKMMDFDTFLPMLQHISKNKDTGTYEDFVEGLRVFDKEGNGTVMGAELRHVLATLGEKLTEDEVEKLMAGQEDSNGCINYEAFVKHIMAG
T1 sequence (Q3SZE5 whole entry partner): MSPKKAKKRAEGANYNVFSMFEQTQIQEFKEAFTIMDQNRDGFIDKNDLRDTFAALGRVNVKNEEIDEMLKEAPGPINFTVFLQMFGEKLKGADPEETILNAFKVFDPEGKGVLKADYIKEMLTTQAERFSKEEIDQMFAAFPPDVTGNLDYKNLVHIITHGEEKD

SMILES | CDMF75 IC15 [µM] | IC50 [µM]
O=C1NC2(CCc3cc(-c4noc(C(F)F)n4)ccc32)CO1 (single isomer, unassigned) [Compound 38B] | >39.2 | > 39.2
CCc1nc(-c2ccc3c(c2)OCC32COC(=O)N2)no1 (single isomer, unassigned) [Compound 41A] | 0.2 | 1
CCc1nc(-c2ccc3c(c2)OCC32COC(=O)N2)no1 (single isomer, unassigned) [Compound 41B] | >39.2 | > 39.2
CCc1nc(-c2ccc3c(c2)CCC3C(=O)Nc2cnn(C)c2)no1 (centres unmarked) [Compound 1, 5-(5-ethyl-1,2,4-oxadiazol-3-yl)-N-(1-methyl-1H-pyrazol-4-yl)-2,3-dihydro-1H-indene-1-carboxamide] | 3.9 | 15.9
